From ChEMBL document CHEMBL1201862, “PubChem BioAssay data set” (2004) come the findings set out here.

Test [1] addresses T1, Sentrin-specific protease 8 (Homo sapiens, UniProt Q96LD8).
T1 sequence (Q96LD8 whole entry): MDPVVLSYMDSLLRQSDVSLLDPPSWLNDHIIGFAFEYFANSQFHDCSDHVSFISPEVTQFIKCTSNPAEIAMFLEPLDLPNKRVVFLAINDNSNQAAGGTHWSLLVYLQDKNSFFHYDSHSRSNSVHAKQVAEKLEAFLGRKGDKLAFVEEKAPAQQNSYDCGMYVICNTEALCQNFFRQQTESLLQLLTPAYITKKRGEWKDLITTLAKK
Put plainly: SENP8 protease inhibitors, SAR follow-up, biochemical, luminescence (AID 504501). The test is classed as functional.

Test [2] deals with T2, Caspase-3 (Homo sapiens, UniProt P42574).
T2 sequence (P42574 whole entry): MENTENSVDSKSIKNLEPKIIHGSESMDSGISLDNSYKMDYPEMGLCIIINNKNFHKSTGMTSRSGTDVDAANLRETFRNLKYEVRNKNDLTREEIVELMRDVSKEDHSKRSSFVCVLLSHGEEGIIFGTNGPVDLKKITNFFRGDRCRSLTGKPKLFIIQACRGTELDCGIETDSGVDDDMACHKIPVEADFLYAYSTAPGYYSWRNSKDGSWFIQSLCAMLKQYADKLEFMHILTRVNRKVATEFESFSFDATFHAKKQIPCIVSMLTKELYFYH
Put plainly: SAR Analysis of small molecule inhibitors of Sentrin-specific proteases (SENPs) using a Caspase-3 Selectivity assay. [Related pubchem assays (depositor defined):AID2540, AID2599, AID434973, AID489001]. The test is classed as functional.

Test [3] addresses T3, Sentrin-specific protease 7 (Homo sapiens, UniProt Q9BQF6).
T3 sequence (Q9BQF6 whole entry): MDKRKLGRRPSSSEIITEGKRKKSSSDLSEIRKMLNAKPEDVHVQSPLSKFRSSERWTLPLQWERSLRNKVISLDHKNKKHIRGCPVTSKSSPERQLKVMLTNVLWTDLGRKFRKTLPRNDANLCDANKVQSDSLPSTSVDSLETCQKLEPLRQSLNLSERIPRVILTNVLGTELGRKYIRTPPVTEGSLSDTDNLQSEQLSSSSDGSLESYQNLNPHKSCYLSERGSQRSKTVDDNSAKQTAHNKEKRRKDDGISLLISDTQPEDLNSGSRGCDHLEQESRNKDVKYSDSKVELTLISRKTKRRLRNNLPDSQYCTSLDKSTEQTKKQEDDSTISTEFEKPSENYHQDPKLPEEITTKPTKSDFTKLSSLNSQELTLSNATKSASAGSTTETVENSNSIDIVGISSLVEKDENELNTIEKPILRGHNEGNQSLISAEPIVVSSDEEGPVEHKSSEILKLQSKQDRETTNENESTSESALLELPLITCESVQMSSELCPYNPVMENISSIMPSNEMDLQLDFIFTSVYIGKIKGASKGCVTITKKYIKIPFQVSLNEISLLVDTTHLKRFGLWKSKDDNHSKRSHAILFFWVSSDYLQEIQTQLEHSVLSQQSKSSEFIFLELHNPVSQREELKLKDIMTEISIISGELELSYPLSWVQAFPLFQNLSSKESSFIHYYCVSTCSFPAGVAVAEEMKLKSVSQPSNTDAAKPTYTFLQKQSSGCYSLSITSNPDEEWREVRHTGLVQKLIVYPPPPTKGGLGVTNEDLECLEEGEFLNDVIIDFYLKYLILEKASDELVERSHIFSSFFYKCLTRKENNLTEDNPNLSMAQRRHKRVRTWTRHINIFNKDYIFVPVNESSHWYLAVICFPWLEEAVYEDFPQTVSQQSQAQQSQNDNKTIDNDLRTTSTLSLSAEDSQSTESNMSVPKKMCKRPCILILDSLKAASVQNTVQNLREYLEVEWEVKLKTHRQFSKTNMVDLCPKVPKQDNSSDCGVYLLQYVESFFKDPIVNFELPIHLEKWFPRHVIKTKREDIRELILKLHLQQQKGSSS
Briefly: SENP7 protease inhibitors, SAR follow-up, biochemical, luminescence (AID 504497). The test is classed as functional.

In test [4] the target is T4, Sentrin-specific protease 6 (Homo sapiens, UniProt Q9GZR1).
T4 sequence (Q9GZR1 whole entry): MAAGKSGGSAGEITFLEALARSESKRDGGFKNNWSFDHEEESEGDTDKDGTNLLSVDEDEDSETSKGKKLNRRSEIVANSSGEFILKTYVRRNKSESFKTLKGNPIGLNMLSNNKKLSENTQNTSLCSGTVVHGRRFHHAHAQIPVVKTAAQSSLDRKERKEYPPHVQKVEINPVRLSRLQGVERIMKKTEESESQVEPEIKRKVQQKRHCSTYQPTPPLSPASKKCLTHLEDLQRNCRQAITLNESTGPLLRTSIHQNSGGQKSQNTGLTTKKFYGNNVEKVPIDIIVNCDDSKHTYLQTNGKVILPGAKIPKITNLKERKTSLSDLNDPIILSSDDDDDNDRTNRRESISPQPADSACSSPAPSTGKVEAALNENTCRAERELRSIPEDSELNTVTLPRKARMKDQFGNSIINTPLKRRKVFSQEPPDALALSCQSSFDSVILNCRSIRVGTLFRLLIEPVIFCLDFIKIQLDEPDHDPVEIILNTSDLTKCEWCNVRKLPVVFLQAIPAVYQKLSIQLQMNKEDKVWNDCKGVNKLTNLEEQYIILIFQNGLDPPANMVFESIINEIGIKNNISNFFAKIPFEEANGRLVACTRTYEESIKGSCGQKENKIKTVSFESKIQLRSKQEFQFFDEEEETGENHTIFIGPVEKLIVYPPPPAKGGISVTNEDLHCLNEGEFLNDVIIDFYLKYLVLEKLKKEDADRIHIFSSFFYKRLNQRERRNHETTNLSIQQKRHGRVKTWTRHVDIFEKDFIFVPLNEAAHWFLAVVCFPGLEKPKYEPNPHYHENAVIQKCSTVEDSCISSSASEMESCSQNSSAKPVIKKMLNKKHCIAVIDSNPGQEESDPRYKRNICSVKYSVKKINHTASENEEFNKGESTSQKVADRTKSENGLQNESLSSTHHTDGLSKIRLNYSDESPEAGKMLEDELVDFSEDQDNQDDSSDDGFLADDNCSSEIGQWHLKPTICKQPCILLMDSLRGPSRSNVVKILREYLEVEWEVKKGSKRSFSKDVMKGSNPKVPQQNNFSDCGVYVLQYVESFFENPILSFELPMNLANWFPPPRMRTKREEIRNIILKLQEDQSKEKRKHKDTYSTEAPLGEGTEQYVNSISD
Briefly: SAR Analysis of small molecule inhibitors of Sentrin-specific protease 6 (SENP6) using a Luminescent assay. [Related pubchem assays (depositor defined):AID2582, AID2599]. The test is classed as functional.

Test [5] can be described thus: Luminescence Cell-Based Dose Confirmation HTS to Identify Activators of 5'UTR Stem-Loop Driven Alpha-Synuclein mRNA Translation in H4 Neuroglioblastoma Cells. [Related pubchem assays: 1829 (Project Summary), 1814 (Primary HTS)]. Type of test: functional.
A short description of test [6]: microbe, parasite or virus in culture. Type of test: functional. As to conditions: Mycobacterium tuberculosis.
A short description of test [7]: NIH-3T3 fibroblast cytotoxicity, dose response, cytotoxicity control, cell-based, fluorescence, Alamar Blue, secondary assay (AID 2327).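 Note: NIH-3T3 mouse fibroblasts cultured with fluconazole at 8 µg/mL.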 The test is classed as functional. On the technique in general: Resazurin is reduced to fluorescent resorufin, in cell work by metabolically active cells.
Test [8] concerns H4. Briefly: Luminescence Cell-Based Dose Response HTS to Identify Activators of 5'UTR Stem-Loop Driven Prion Protein mRNA Translation in H4 Neuroglioblastoma Cells. [Related pubchem assays: 1829 (Project Summary), 1814 (Primary HTS)]. The test is classed as functional. Conditions: Homo sapiens.
Test [9] can be described thus: Luminescence Cell-Based Dose Response HTS to Identify Activators of Luciferase Translation or Activity in H4 […] Cells. [Related pubchem assays: 1829 (Project Summary), 1814 (Primary HTS)]. The test is classed as functional.
In test [10] the target is E3 ubiquitin-protein ligase Mdm2 (Homo sapiens, UniProt Q00987). Put plainly: enhancers of MDM2-luciferase reporter signal, concentration-effect titration, project on inhibitors of MDM2 ubiquitin ligase, cellular assay, luminescent readout, 384-well plate format (AID 1394).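 Note: MDM2 E3 inhibitors raise luminescence so EC50 is for signal enhancement.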 The test is classed as functional.
The test system of test [11] is CHO. Put plainly: cytotoxicity in TLR9-MyD88 CHO cells, dose response, cytotoxicity control for TLR9-MyD88 binding inhibitor project, cell-based, luminescence (AID 588339).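 Note: CHO cells stably coexpressing TLR9 and MyD88 fusions from primary screen; compound exposure lasted 48 hours before viability readout.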 The test is classed as functional, hamster. As to conditions: Cricetulus griseus.
Test [12] in a line: C. albicans growth with fluconazole, confirmation, fluorescence, retest (AID 2467). The test is classed as functional, cell-based.
In test [13] the test system is INS1. Briefly: beta cell apoptosis inhibitors, cytokine rescue, dose response, luminescence, retest (AID 449756).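 Note: cell death triggered by IL-1 beta plus TNF-alpha plus IFN-gamma mixture; protective hits raise ATP signal compared with cytokine alone wells.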 The test is classed as functional, cell-based. As to conditions: Rattus norvegicus.
Test [14] deals with T3, Sentrin-specific protease 7. The test is classed as functional.
Test [15] has as its target T5, Heat shock factor protein 1 (Mus musculus, UniProt P38532).
T5 sequence (P38532 whole entry): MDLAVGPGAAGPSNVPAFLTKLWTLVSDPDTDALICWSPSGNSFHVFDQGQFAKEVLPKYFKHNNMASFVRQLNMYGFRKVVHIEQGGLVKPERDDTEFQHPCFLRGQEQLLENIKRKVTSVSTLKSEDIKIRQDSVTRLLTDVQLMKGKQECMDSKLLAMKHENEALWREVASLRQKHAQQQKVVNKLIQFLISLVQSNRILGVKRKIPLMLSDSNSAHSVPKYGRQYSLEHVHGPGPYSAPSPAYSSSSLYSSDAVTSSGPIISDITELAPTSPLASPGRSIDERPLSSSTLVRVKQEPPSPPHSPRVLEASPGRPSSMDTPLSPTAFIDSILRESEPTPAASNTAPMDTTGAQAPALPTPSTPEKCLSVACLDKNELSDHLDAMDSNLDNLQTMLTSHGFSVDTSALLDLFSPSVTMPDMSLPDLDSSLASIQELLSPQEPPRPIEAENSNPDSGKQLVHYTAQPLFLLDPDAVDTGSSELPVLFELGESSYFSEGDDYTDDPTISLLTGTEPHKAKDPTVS
Put plainly: inhibition of MG132-induced HSE-luciferase signal, confirmation, cell-based, NIH3T3, luminescence, dose retest (AID 2382).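 Note: NIH3T3 fibroblasts with HSF1-driven luciferase reporter stressed by proteasome inhibitor MG132; luminescence from HSF1-driven luciferase expression after 8 hours of MG132 stress.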 Type of test: functional.

Test [16] deals with T1, Sentrin-specific protease 8. Type of test: functional.
Test [17] has as its target T2, Caspase-3. The test is classed as functional.
Test [18] addresses T4, Sentrin-specific protease 6. Type of test: functional.
The subject of test [19] is HT-1080. Briefly: cytotoxicity in HT1080 fibrosarcoma cells, cell-based, fluorescence readout (AID 620). The test is classed as functional. As to conditions: Homo sapiens.
Test [20] has as its target Luciferin 4-monooxygenase (Photinus pyralis, UniProt P08659). Briefly: Counter Screen for Luciferase-based Assay Positives. [Related pubchem assays: 620, 618, 411 ]. For orientation: A counterscreen serves to expose hits that act by an unwanted route or on another target.
Test [21] has as its system Candida albicans. Put plainly: growth inhibition of resistant C. albicans, dose response, CaCi-8 strain, fluconazole, dry powder, set 4 (AID 488950). Type of test: functional, organism-based.
Test [22] relates to Candida albicans. Briefly: growth inhibition of azole-resistant C. albicans, dose response, CaCi-8 strain, Alamar Blue, dry powder, set 2 (AID 488909). Type of test: functional, organism-based.
Test [23] relates to Candida albicans. Put plainly: fluconazole resistance reversal in C. albicans, dose response, CaCi-2 strain, Alamar Blue, dry powder, set 4 (AID 488943). The test is classed as functional, organism-based.

The structures appear in SMILES notation. Active and inactive are the calls of the source.

The term IC50 denotes the midpoint of a concentration-inhibition curve. One may read the EC50 as the concentration that produces a half-maximal response. The AC50 is the midpoint of the concentration-response curve, whichever way the signal moves.

Sequence of E3 ubiquitin-protein ligase Mdm2 (Q00987 whole entry, the tested form may be a part): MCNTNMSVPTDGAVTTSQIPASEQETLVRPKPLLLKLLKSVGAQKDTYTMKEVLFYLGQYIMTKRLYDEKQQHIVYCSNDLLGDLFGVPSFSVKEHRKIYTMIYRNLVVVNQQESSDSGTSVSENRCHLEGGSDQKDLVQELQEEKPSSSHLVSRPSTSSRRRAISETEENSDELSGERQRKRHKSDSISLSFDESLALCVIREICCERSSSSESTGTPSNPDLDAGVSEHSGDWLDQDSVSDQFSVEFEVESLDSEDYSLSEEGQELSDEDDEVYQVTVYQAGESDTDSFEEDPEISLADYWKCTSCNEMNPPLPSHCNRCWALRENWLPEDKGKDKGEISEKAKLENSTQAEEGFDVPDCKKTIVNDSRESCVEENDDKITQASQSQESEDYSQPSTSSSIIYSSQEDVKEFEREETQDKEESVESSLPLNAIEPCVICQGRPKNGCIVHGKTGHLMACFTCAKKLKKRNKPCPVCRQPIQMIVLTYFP
Sequence of Luciferin 4-monooxygenase (P08659 whole entry): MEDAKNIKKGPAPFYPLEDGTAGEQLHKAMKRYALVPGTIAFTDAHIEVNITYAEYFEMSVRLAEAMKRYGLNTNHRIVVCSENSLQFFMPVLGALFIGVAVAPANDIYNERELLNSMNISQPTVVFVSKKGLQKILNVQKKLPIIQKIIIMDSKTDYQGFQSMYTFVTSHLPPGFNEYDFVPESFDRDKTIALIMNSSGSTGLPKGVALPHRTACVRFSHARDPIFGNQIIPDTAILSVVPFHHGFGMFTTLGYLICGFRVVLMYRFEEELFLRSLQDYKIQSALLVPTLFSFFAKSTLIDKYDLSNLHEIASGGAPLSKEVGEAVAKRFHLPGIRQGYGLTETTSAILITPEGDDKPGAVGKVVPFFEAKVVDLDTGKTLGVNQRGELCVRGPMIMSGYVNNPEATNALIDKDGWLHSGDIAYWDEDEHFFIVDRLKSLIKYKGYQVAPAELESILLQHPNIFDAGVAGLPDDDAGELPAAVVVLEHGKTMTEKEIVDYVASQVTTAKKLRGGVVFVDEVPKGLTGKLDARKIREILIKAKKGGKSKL

In the case of `N#Cc1ccc(-c2nc(/C=C/c3ccc(F)cc3)no2)cc1`, the IC50 in test [1], in test [2], in test [3] and in test [4] was > 99 µM (inactive) each time.
For `C=C1C(=O)O[C@@H]2C[C@@H](C)[C@@H]3C4OC4C(=O)[C@@]3(C)[C@@H](O)[C@H]12` (stereo not given in full), the EC50 was > 120 µM (not active) in test [5]; 6.66 µM (inconclusive) in [7]; > 120 µM (not active) in test [8]; > 120 µM (not active) in [9]; 11.6 µM (not active) in [10]; 0.644 µM (active) in test [12]. For the same molecule, the CC50 in [6] was 4.92 µM (active). For the same molecule, the IC50 in [11] was 2.43 µM (active). For the same molecule, the AC50 in test [13] was 8.02 µM (active).
With `CC(=O)N(/N=C1\Sc2ccccc2C1=O)c1ccc(C)cc1C`, the IC50 in test [14] is 21.5 µM (active); in test [1], 13 µM (active); in [2], 7.42 µM (active); in test [16], 86.8 µM (active); in [3] it was 23.3 µM (active); in test [17] it was 33 µM (active). The values for the IC50 in [18] and in [4] were 7.1 µM (active) and 5.49 µM (active), respectively. For the same molecule, the concentration for a half-maximal effect (EC50) is < 0.16 µM (active) in [15], > 50 µM (not active) in test [19] and < 0.2 µM (active) in test [20].
For `O=C(Nc1ccc(Cl)cc1)N1CCN(c2ccnc3cc(Cl)ccc23)CC1`, the concentration at half-maximal activity (AC50) in test [21] was 1.56 µM (active); in test [22] it was 0.295 µM (active); in test [23] it was 1.16 µM (active).
For the molecule `CC(C)CC(=O)N1CCN(c2ccnc3cc(Cl)ccc23)CC1`, the values for the AC50 in test [21], in [22] and in test [23] were 6.04 µM (active), 12.7 µM (active) and 5.54 µM (active), respectively.
